# Data as given in patent US3946006A, “Tetrahydrothiadiazinethiones” (Sterling Drug Inc., priority 1974, dated 1976).
# Legend:
# Experiment in all cases: minimal inhibiting concentration (MIC), filter disc agar plate test
# Type in all cases: cell-based
# Aspergillus niger = conditions: A. niger; Sabouraud agar, three days incubation
# Description: (§1) The bacteriological effectiveness of the compounds of the invention was determined with reference to minimal inhibiting concentrations, that is, the minimal concentration that will effect complete inhibition of germ growth (MIC). The test procedure is as follows:
# (§2) A 1% suspension, botained by homogenizing 500 mg. of the test agent in 50 ml. of 0.5% natrosol solution (natrosol 250 HRPS = hydroxymethylcellulose), is serially diluted with 0.5% natrosol solution to provide suspensions, in sterile test tubes, having concentrations of 0.1, 0.05, 0.01 and 0.005 percent. To ensure accuracy in dilution, the suspensions are mixed with the aid of a mechanical mixer. The dilutions (6 ml.) are added to sterile cups and immediately 10 filter discs (.phi. about 10 mm) are placed on the surface of the liquid in each cup. The filter discs, which slowly sink to the bottom on becoming saturated, are left in the solutions for one hour. 16-Hour old cultures of Escherichia coli, Staphylococcus aureus, Pyoceanus fluorescens and Proteus vulgaris are diluted at the ratio of 1:10 in glucose broth. 1-Week cultures of Penicillium glaucum, Aspergillus niger, Chaetomium globosum, Trichoderma viride, Humicola sp., Scopulariopsis brevicaulis, Pullularia pullulans, Sclerophoma pityophila, Saccharomyces cerevisiae and Candida albicans are harvested by rinsing and diluted 1:10 in nutrient broth.
# (§3) Standard II nutrient agar plates, with an addition of lactose and bromothymol blue (BROLAC agar) for bacteria, and Sabouraud agar plates for yeasts and fungi, are dried and labeled (10 Sabouraud agar plates and 4 nutrient agar plates were used per preparation). Of the diluted germ suspensions, 0.05 ml (1 drop) is inoculated onto each plate. Prior to further treatment, the plates are allowed to stand for one-half hour to absorb the germ suspension. Filter discs, corresponding to each of the five dilutions, are placed on the surface of each inoculated plate for each culture (step 1). The plates are examined for zones of inhibition after twenty-four hours incubation in the case of bacteria, and after three days incubation in the case of yeasts and fungi. Antimicrobial activity is indicated by occurance of a zone of inhibition. In the case of bacteria, the purity of the culture can be determined at the same time by lactose fermentation as indicated by color change in the nutrient medium. A visible inhibition ring is designated as negative growth an no inhibition ring as 3+ growth. […] A new dilution series then is prepared, with only one, or at most two, filter discs being placed on the surface of each plate for each culture. Activity is then determined as described above.
# (§4) The MIC values, expressed in percent concentration of the test agent, is presented in TAble 1 for compounds of the invention having formula I designated Example 1 (R--O--A = CH2 CH2 OCH3), Example 2 (R--O--A = CH2 CH2 OCH3) and Example 4(R--O--A = CH2 CH2 CH2 OCH2 CH3), and for two known compounds, designated A (3,5-dibenzyl-tetrahydro-2H-1,3,5-thiadiazine-2-thione) and B[3,5-bis(2-hydroxyethyl)-2H-1,3,5-thiadiazine-2-thione].
# Candida albicans = conditions: C. albicans; Sabouraud agar, three days incubation
# Description: as §1, §2, §3, §4
# Chaetomium globosum = conditions: C. globosum; Sabouraud agar, three days incubation
# Description: as §1, §2, §3, §4
# Escherichia coli = conditions: E. coli; nutrient agar, 24 hours incubation
# Description: as §1, §2, §3, §4
# Humicola sp. = conditions: Sabouraud agar, three days incubation
# Description: as §1, §2, §3, §4
# Penicillium glaucum = conditions: P. glaucum; Sabouraud agar, three days incubation
# Description: as §1, §2, §3, §4
# Proteus vulgaris = conditions: P. vulgaris; nutrient agar, 24 hours incubation
# Description: as §1, §2, §3, §4
# Pullularia pullulans = conditions: P. pullulans; Sabouraud agar, three days incubation
# Description: as §1, §2, §3, §4
# Pyoceanus fluorescens = conditions: P. fluorescens; nutrient agar, 24 hours incubation
# Description: as §1, §2, §3, §4
# Saccharomyces cerevisiae = conditions: S. cerevisiae; Sabouraud agar, three days incubation
# Description: as §1, §2, §3, §4
# Sclerophoma pityophila = conditions: S. pityophila; Sabouraud agar, three days incubation
# Description: as §1, §2, §3, §4
# [1] = test system: Scopulariopsis brevicaulis; conditions: S. brevicaulis; Sabouraud agar, three days incubation
# Description: as §1, §2, §3, §4
# Staphylococcus aureus = conditions: S. aureus; nutrient agar, 24 hours incubation
# Description: as §1, §2, §3, §4
# Trichoderma viride = conditions: T. viride; Sabouraud agar, three days incubation
# Description: as §1, §2, §3, §4
SMILES,MIC (Aspergillus niger) [% conc.],MIC (Candida albicans) [% conc.],MIC (Escherichia coli) [% conc.],MIC (Penicillium glaucum) [% conc.],MIC (Proteus vulgaris) [% conc.],MIC (Pullularia pullulans) [% conc.],MIC (Pyoceanus fluorescens) [% conc.],MIC (Saccharomyces cerevisiae) [% conc.],MIC (Sclerophoma pityophila) [% conc.],MIC (Staphylococcus aureus) [% conc.],MIC (Chaetomium globosum) [% conc.],MIC (Humicola sp.) [% conc.],MIC [1] [% conc.],MIC (Trichoderma viride) [% conc.]
"OCCN1CSC(=S)N(CCO)C1 [B, 3,5-bis(2-hydroxyethyl)-2H-1,3,5-thiadiazine-2-thione, reference compound]",1,1,1,1,1,0.01,0.1,0.1,0.01,0.05,1,0.1,0.1,1
"S=C1SCN(Cc2ccccc2)CN1Cc1ccccc1 [A, 3,5-dibenzyl-tetrahydro-2H-1,3,5-thiadiazine-2-thione, reference compound]",> 1,> 1,1,> 1,1,> 1,1,> 1,> 1,1,> 1,> 1,> 1,> 1

# Continued, in another order:
MIC (Aspergillus niger) [% conc.],MIC (Candida albicans) [% conc.],MIC (Escherichia coli) [% conc.],MIC (Penicillium glaucum) [% conc.],MIC (Proteus vulgaris) [% conc.],MIC (Pullularia pullulans) [% conc.],MIC (Pyoceanus fluorescens) [% conc.],MIC (Saccharomyces cerevisiae) [% conc.],MIC (Sclerophoma pityophila) [% conc.],MIC (Staphylococcus aureus) [% conc.],SMILES,MIC (Chaetomium globosum) [% conc.],MIC (Humicola sp.) [% conc.],MIC [1] [% conc.],MIC (Trichoderma viride) [% conc.]
0.1,0.05,0.1,0.05,0.1,0.05,0.1,0.01,< 0.005,0.07,"COCCN1CSC(=S)N(CCOC)C1 [Ex. 2, 3,5-Bis(2-methoxyethyl)-tetrahydro-2H-1,3,5-thiadiazine-2-thione]",0.01,< 0.005,< 0.005,0.1
< 0.003,0.01,0.1,< 0.003,0.05,< 0.003,0.1,< 0.003,< 0.003,0.05,"CCOCCCN1CSC(=S)N(CCCOCC)C1 [Ex. 4, 3,5-Bis(3-ethoxypropyl)-tetrahydro-2H-1,3,5-thiadiazine-2-thione]",,,,
0.03,0.05,0.1,0.005,0.1,0.005,0.1,0.05,0.005,0.05,"COCCCN1CSC(=S)N(CCCOC)C1 [Ex. 1, 3,5-Bis(3-methoxypropyl)-tetrahydro-2H-1,3,5-thiadiazine-2-thione]",0.005,0.01,0.005,0.03
